Reference: patent US5010058A, “3,5,6-substituted derivatives of 1,2-O-isopropylidene-α,D-glucofuranose and intermediates for preparing these derivatives” (501 Greenwich Pharmaceuticals Incorporated, priority 1989, dated 1991)
Read-outs that look alike come from different tables or passages of the source.

Test system: normal spleen cells / splenic T-lymphocytes (Con-A stimulated)
Experiment: Con-A blastogenic response of normal spleen cells (3H-thymidine incorporation)
Format: cell-based, mouse (C57Bl/6)
Settings: for Blastogenic response of normal spleen cells to Con-A: triplicates ± SD; for inhibition at 1 µg/mL / inhibition at 10 µg/mL / inhibition at 25 µg/mL / inhibition at 100 µg/mL / inhibition at 300 µg/mL / inhibition at 750 µg/mL: Mus musculus, T-lymphocyte, 72 h, read-out: Blastogenic response of normal spleen cells to Con-A, % effect; for inhibition at 1 µg/mL / inhibition at 10 µg/mL / inhibition at 25 µg/mL / inhibition at 100 µg/mL / inhibition at 300 µg/mL / inhibition at 750 µg/mL / Blastogenic response of normal spleen cells to Con-A; % effect: percent change from no compound; for Blastogenic response of normal spleen cells to Con-A; % effect: 4320 min
Description: A simple method is used to screen compounds for their ability to modulate T-lymphocyte activity which comprises assessing the capacity of the compounds to alter the activation of murine spleen cells in response to T-lymphocyte mitogen activators, such as concanavalin-A (Con-A). The method used to measure the effects of the compounds of the present invention on the blastogenic response of spleen cells to the T-lymphocyte mitogen, (i.e., Con-A), is as follows.
Spleen cells were removed from normal C57Bl/6 mice and homogenized to obtain a single cell suspension. Erythrocytes were lysed by hypotonic shock. Upon determination of the viability and concentration of the remaining lymphoid cells, they were adjusted to a concentration of 4×10^6 /ml. These spleen cells (2×10^5 cells per […]) were seeded into wells of microtiter plates with the compounds of the present invention having the following dose concentrations:
Con-A was also added to these cultures at a final concentration of […]. These cells were cultured for 3 days at 37° C. in a humidified atmosphere of 5% CO2 in air. For the last 18 hours of culture, […] H-thymidine was added to each well. The cells were then precipitated by a multichannel harvester. The amount of ^3 H-thymidine incorporated by the cultured cells were measured in a liquid scintillation counter (Disintegrations per min., DPM). All assays were conducted in triplicate.
The incubation medium used for the blastogenesis assays was RPMI-1640 medium containing 10% fetal bovine serum, […] streptomycin, 100 U/ml penicillin, […] Hepes buffer solution, 5×10^-5 M 2-mercaptoethanol and 2 mM glutamine.
^a Experimental compounds were first suspended in DMSO or ethanol,
^b The effect of experimental compounds on the blastogenic response o

[1] = Con-A 1 ug/ml, compound 1 ug/ml
[2] = Con-A 1 ug/ml, compound 10 ug/ml
[3] = Con-A 1 ug/ml, compound 25 ug/ml
[4] = Con-A 1 ug/ml, compound 100 ug/ml
[5] = Con-A 1 ug/ml, compound 300 ug/ml
[6] = Con-A 1 ug/ml, compound 750 ug/ml
[7] = Con-A 4 ug/ml, compound 1 ug/ml
[8] = Con-A 4 ug/ml, compound 10 ug/ml
[9] = Con-A 4 ug/ml, compound 25 ug/ml
[10] = Con-A 4 ug/ml, compound 100 ug/ml
[11] = Con-A 4 ug/ml, compound 300 ug/ml
[12] = Con-A 4 ug/ml, compound 750 ug/ml

Structure (SMILES) | Blastogenic response of normal spleen cells to Con-A [1] | Blastogenic response of normal spleen cells to Con-A [2] | Blastogenic response of normal spleen cells to Con-A [3] | Blastogenic response of normal spleen cells to Con-A [4] | Blastogenic response of normal spleen cells to Con-A [5] | Blastogenic response of normal spleen cells to Con-A [6] | Blastogenic response of normal spleen cells to Con-A [7] | Blastogenic response of normal spleen cells to Con-A [8] | Blastogenic response of normal spleen cells to Con-A [9] | Blastogenic response of normal spleen cells to Con-A [10] | Blastogenic response of normal spleen cells to Con-A [11] | Blastogenic response of normal spleen cells to Con-A [12] | inhibition at 1 µg/mL [1] [%] | inhibition at 10 µg/mL [2] [%] | inhibition at 25 µg/mL [3] [%] | inhibition at 100 µg/mL [4] [%] | inhibition at 300 µg/mL [5] [%] | inhibition at 750 µg/mL [6] [%] | inhibition at 1 µg/mL [7] [%] | inhibition at 10 µg/mL [8] [%] | other results
CCCCCCCOC(C)C1OC2OC(C)(C)OC2C1O [Ex. 5, 1,2-O-Isopropylidene-5-O-n-heptyl-6-deoxy α, D-glucofuranose] | 91,612 ± 15,530 cpm | 79,822 ± 15,967 cpm | 63,177 ± 13,102 cpm | 8,553 ± 9,274 cpm | 8,698 ± 786 cpm | 9,487 ± 7,951 cpm | 116,377 ± 12,433 cpm | 92,190 ± 13,256 cpm | 62,068 ± 3,736 cpm | 2,299 ± 490 cpm | 5,932 ± 2,770 cpm | 4,494 ± 2,952 cpm | -27 | -11 | 13 | 88 | 88 | 87 | -20 | 5 | inhibition at 25 µg/mL [9]: 36%; inhibition at 100 µg/mL [10]: 98%; inhibition at 300 µg/mL [11]: 94%; inhibition at 750 µg/mL [12]: 95%
CCCCCCCOC(C)C1OC2OC(C)(C)OC2C1OCCCN(C)C [Ex. 6, 1,2-O-Isopropylidene-3-O-3'-(N'-N'-dimethylaminopropyl)-5-O-n-heptyl-6-deoxy-α,D-glucofuranose] | 86,406 ± 16,348 cpm | 12,670 ± 6,997 cpm | 5,399 ± 3,253 cpm | 6,597 ± 2,887 cpm | 3,693 ± 340 cpm | 3,709 ± 281 cpm | 75,689 ± 8,498 cpm | 4,693 ± 1,930 cpm | 6,187 ± 6,859 cpm | 6,741 ± 4,224 cpm | 3,756 ± 923 cpm | 2,933 ± 1,383 cpm | -20 | 82 | 93 | 91 | 95 | 95 | 22 | 95 | inhibition at 25 µg/mL [9]: 94%; inhibition at 100 µg/mL [10]: 93%; inhibition at 300 µg/mL [11]: 96%; inhibition at 750 µg/mL [12]: 97%
CCCCCCCNCC(O)C1OC2OC(C)(C)OC2C1OCCCCCCC [Ex. 4, 1,2-O-Isopropylidene-3-O-(n-heptyl)-6-deoxy-6-aminoheptyl-α, D-glucofuranose] | 22,026 ± 9,838 cpm | 3,406 ± 422 cpm | 3,575 ± 827 cpm | 5,241 ± 2,071 cpm | 9,102 ± 6,857 cpm | 3,762 ± 1,201 cpm | 41,151 ± 9,885 cpm | 7,789 ± 7,636 cpm | 13,114 ± 8,696 cpm | 7,102 ± 6,851 cpm | 4,919 ± 645 cpm | 3,128 ± 99 cpm | 70 | 95 | 95 | 93 | 87 | 95 | 58 | 92 | inhibition at 25 µg/mL [9]: 86%; inhibition at 100 µg/mL [10]: 93%; inhibition at 300 µg/mL [11]: 95%; inhibition at 750 µg/mL [12]: 97%
CCCCCCCNC[C@H]1OC(C)(C)O[C@@H]2[C@H]3OC(C)(C)O[C@H]3O[C@@H]21 [Ex. 1, 1,2:3,5-Di-O-isopropylidene-6-deoxy-6-aminoheptyl-α, D-glucofuranose] | 93,328 ± 15,583 cpm | 53,439 ± 9,464 cpm | 26,920 ± 10,528 cpm | 10,705 ± 9,501 cpm | 5,398 ± 4,008 cpm | 19,688 ± 7,148 cpm | 116,263 ± 2,521 cpm | 32,032 ± 1,999 cpm | 6,201 ± 1,410 cpm | 4,880 ± 3,619 cpm | 3,097 ± 573 cpm | 2,089 ± 35 cpm |  |  |  |  |  |  |  |  | Blastogenic response of normal spleen cells to Con-A; % effect [1]: +29%; Blastogenic response of normal spleen cells to Con-A; % effect [2]: -26%; Blastogenic response of normal spleen cells to Con-A; % effect [3]: -63%; Blastogenic response of normal spleen cells to Con-A; % effect [4]: -85%; Blastogenic response of normal spleen cells to Con-A; % effect [5]: -93%; Blastogenic response of normal spleen cells to Con-A; % effect [6]: -87%; Blastogenic response of normal spleen cells to Con-A; % effect [7]: +20%; Blastogenic response of normal spleen cells to Con-A; % effect [8]: -67%; Blastogenic response of normal spleen cells to Con-A; % effect [9]: -94%; Blastogenic response of normal spleen cells to Con-A; % effect [10]: -95%; Blastogenic response of normal spleen cells to Con-A; % effect [11]: -97%; Blastogenic response of normal spleen cells to Con-A; % effect [12]: -98%
